Literature values, collected in PMC12505607 (BMC Medicine, 2025).
Like-named read-outs stand apart in the source and are kept apart here.

SMILES | incidence of grades 3–4 neutropenia (patients; phase 1 study) [%] | OCT2 inhibition (OCT2) | MATE2-K inhibition (MATE2-K) | MATE1 inhibition (MATE1) | recommended dose for combination with endocrine therapy (patients; in vivo) [mg BID] | patients with grade 3 fatigue as DLTs (patients; phase 1 dose-escalation study) [patients] | incidence of grades 3–4 neutropenia (patients; in vivo) [%]
CN(C)C(=O)c1cc2cnc(Nc3ccc(N4CCNCC4)cn3)nc2n1C1CCCC1 [ribociclib] | 27.0 |  |  |  |  |  | 
CCN1CCN(Cc2ccc(Nc3ncc(F)c(-c4cc(F)c5nc(C)n(C(C)C)c5c4)n3)nc2)CC1 [abemaciclib] | 32.0 | inhibition | inhibition | inhibition | 150 | 4 | 
CC(=O)c1c(C)c2cnc(Nc3ccc(N4CCNCC4)cn3)nc2n(C2CCCC2)c1=O [palbociclib] |  |  |  |  |  |  | 33.0
